Results taken from patent publication EP0697407B1, “Pyrimidinedione derivatives and antiarrhythmic compositions containing same” (MITSUI TOATSU CHEMICALS, Inc., priority 1994, dated 1996).

Test system: right Purkinje fiber
Experiment: Effect on myocardial action potential duration (APD75) in isolated, perfused Purkinje fiber
Assay type: cell-based, mongrel adult dog
Conditions: Canis lupus familiaris, 20 min, 20 minutes' incubation, field stimulus of 1 Hz, 37°C, read-out: T (%), percent prolongation of myocardial action potential duration (APD75); for activation at 1 µM: Dose 1 x 10^-6 M; for activation at 10 µM: Dose 10 x 10^-6 M; for activation at 100 µM: Dose 100 x 10^-6 M
Procedure: After a mongrel adult dog was anesthetized by the intravenous administration of 30 mg/kg of pentobarbital, the heart was excised therefrom. Then, the right Purkinje fiber was isolated in a nutrient fluid (i.e., Tyrode's solution). The isolated right Purkinje fiber was fixed in a constant-temperature bath (20 ml) at 37°C and perfused with Tyrode's solution. In this state, the myocardial action potential duration (APD75) was measured before and after the administration of each test compound. Then, the percent prolongation of myocardial action potential duration (T) after the administration of each test compound was calculated according to the following equation. T(%) =(B - A)/(A)x 100 [formula] where A: APD75 before administration B: APD75 after administration
APD75 was measured as follows: A field stimulus of 1 Hz was given to the right Purkinje fiber, and any change in action potential was detected by a glass microelectrode (10-20 MΩ) penetrated into a Purkinje fiber and monitored on an oscilloscope via an amplifier. The waveform on the oscilloscope was analyzed by means of a computer, and the duration beween the point of action potential generation adn the point of 75% repolarization was defined as APD75. The test compounds shown in Table 2 were separately added to the perfusing nutrient fluid, and after 20 minutes' incubation was recorded. This test was carried out according to the method of Sato et al. [S. Sato, K. Hashimoto; Arzneimittel Forschung, 34(1), 3a, 376-380(1984)].

Row | Compound | activation at 1 µM | activation at 10 µM | activation at 100 µM
1 | CCN(CCCc1cc(=O)n(C)c(=O)n1C)CCOc1ccc([N+](=O)[O-])cc1 [Example 28, 6-[3-[N-ethyl-N-[2-(4-nitrophenoxy)ethyl]amino]propyl]-1,3-dimethyl-2,4(1H,3H)pyrimidinedione] | 14% | 35% | 114%
2 | CCN(CCCc1cc(=O)n(C)c(=O)n1C)CCOc1cccc(F)c1 [Example 38, 6-[3-[N-ethyl-N-[2-(3-fluorophenoxy)ethyl]amino]propyl]-1,3-dimethyl-2,4(1H,3H)pyrimidinedione] | 6% | 16% | 22%
3 | CCN(CCCc1cc(=O)n(C)c(=O)n1C)CCOc1ccc(F)cc1 [Example 39, 6-[3-[N-ethyl-N-[2-(4-fluorophenoxy)ethyl]amino]propyl]-1,3-dimethyl-2,4(1H,3H)pyrimidinedione] | 14% | 53% | 49%
4 | CCN(CCOc1ccc(F)cc1C(C)=O)CCc1cc(=O)n(C)c(=O)n1C [Example 61, 6-[2-[N-[2-(2-acetyl-4-fluorophenoxy)ethyl]-N-ethylamino]ethyl]-1,3-dimethyl-2,4(1H,3H)pyrimidinedione] | 3% | 18% | 35%
5 | CCCN(CCCc1cc(=O)n(C)c(=O)n1C)CCc1ccc([N+](=O)[O-])cc1 [Example 76, 1,3-dimethyl-6-[3-[N-[2-(4-nitrophenyl)ethyl]-N-propylamino]propyl]-2,4(1H,3H)pyrimidinedione] | 52% | 114% | 
6 | CCN(CCCc1cc(=O)n(C)c(=O)n1C)CCc1ccc([N+](=O)[O-])cc1 [Example 84, 6-[3-[N-ethyl-N-[2-(4-nitrophenyl)ethyl]amino]propyl]-1,3-dimethyl-2,4(1H,3H)pyrimidinedione] | 23% | 72% | 96%
7 | CCN(CCCOc1ccc(NS(C)(=O)=O)cc1)CCCc1cc(=O)n(C)c(=O)n1C [Example 122, 6-[3-[N-ethyl-N-[3-(4-methanesulfonylaminophenoxy)propyl]amino]propyl]-1,3-dimethyl-2,4(1H,3H)-pyrimidinedione] | 10% | 14% | 33%
8 | CCN(CCOc1ccc(NS(C)(=O)=O)cc1)CCc1cc(=O)n(C)c(=O)n1C [Example 123, 6-[2-[N-ethyl-N-[2-(4-methanesulfonylaminophenoxy)ethyl]amino]ethyl]-1,3-dimethyl-2,4(1H,3H)-pyrimidinedione] | 12% | 41% | 64%
9 | CCN(CCCc1ccc(NS(C)(=O)=O)cc1)CCCc1cc(=O)n(C)c(=O)n1C [Example 138, 6-[3-[N-ethyl-N-[3-(4-methanesulfonylaminophenyl)propyl]amino]propyl]-1,3-dimethyl-2,4(1H,3H)-pyrimidinedione] | 6% | 22% | 49%
